# Laboratory results as given in patent US20230364230A1, “COMBINATION THERAPY FOR CANCER” (ENGMAB SÀRL, priority 2020, published 2023).
# Tests used:
# [1] = tested on: NK cells; assay: NK cell proliferation in DLBCL patient PBMCs stimulated with anti-CD3; type: cell-based, human; conditions: PBMCs treated 1 hour prior to anti-CD3 stimulation for 3 days
# Experimental: Percentage of NK cells was analyzed via flow cytometry gated on live CD3-CD19-CD14-CD56+CD16+NK cells. Cytokinic NK cells were […]16^low and cytotoxic NK cells were CD56^lowCD16^high populations.
# [2] = biological target: T1, Ikaros (Homo sapiens, UniProt Q13422+Q96SW2); assay: Ikaros expression by western blot in DLBCL cells; type: cell-based; set-up: endogenous in cells; host or cells: Karpas 422, WSU-DLCL2, U2932 and TMD8 DLBCL cells; conditions: Karpas 422, WSU-DLCL2, U2932 and TMD8 cells, 0.1, 1, or 10 μM
# Experimental: (§1) Karpas 422, WSU-DLCL2, U2932 and TMD8 cells were treated with avadomide at a concentration of 0.1, 1, or 10 μM. The expression of Aiolos, Ikaros, […] and IRF4 were measured by western blot.
# [3] = tested on: interferon stimulated genes; assay: Induction of interferon stimulated genes in DLBCL cells; type: cell-based; conditions: correlated with degradation of Aiolos and Ikaros
# Experimental: as §1
# The induction of interferon stimulated genes was correlated with the degradation of Aiolos and Ikaros. […] Such direct regulation was shown using Chromatin Immunoprecipitation sequencing (ChIP-seq) analysis and generic methods, see, e.g., Hagner et al, Blood, 126(6):779-789 (2015), which is incorporated by reference in its entirety.
# [4] = biological target: T2, Aiolos (Homo sapiens, UniProt Q96SW2+Q9UKT9); assay: Aiolos expression by western blot in DLBCL cells; type: cell-based; set-up: endogenous in cells; host or cells: Karpas 422, WSU-DLCL2, U2932 and TMD8 DLBCL cells; conditions: Karpas 422, WSU-DLCL2, U2932 and TMD8 cells, 0.1, 1, or 10 μM
# Experimental: as §1
# [5] = biological target: T2, Aiolos; assay: Degradation of Aiolos in primary NK cells (intracellular staining, flow cytometry); type: cell-based; set-up: endogenous in cells; host or cells: primary human NK cells gated from healthy-donor PBMCs; conditions: PBMCs from healthy donors (n=7), dose titrations, 5 hours
# Experimental: (§2) Intracellular staining of Aiolos and Ikaros in primary human NK cells was performed by flow cytometry gating on live, CD3-CD4-CD8-CD56+CD16+NK cell populations.
# [6] = tested on: TMD8 cells; assay: HLA-DR and CD86 expression in TMD8 cells by flow cytometry; type: cell-based; conditions: 48 hours
# Experimental: DLBCL cell line TMD8 was treated with avadomide for 48 hours. […] The result corroborated the ChIP-seq analysis (FIG. 10B).
# [7] = biological target: T1, Ikaros; assay: Degradation of Ikaros in primary NK cells (intracellular staining, flow cytometry); type: cell-based; set-up: endogenous in cells; host or cells: primary human NK cells gated from healthy-donor PBMCs; conditions: PBMCs from healthy donors (n=7), dose titrations, 5 hours
# Experimental: as §2
# [8] = tested on: NKG2D+ NK cells; assay: Surface expression of NKG2D on NK cells in DLBCL patient PBMC; type: cell-based, human; conditions: PBMCs treated 1 hour prior to anti-CD3 stimulation for 3 days
# Experimental: Surface expression of NKG2D was measured by flow cytometry gated on live CD3-CD19-CD14-CD56+CD16+NK cells.
# [9] = tested on: H929 target cells; assay: Protein 1 induced ADCC after pretreatment of PBMCs with single concentration, Protein 1 dose range; type: cell-based, human; conditions: PBMCs pretreated 24 or 48 hours with 0.1 nM CC-92480 or 1 nM CC-220; Protein 1 0 nM to 10 nM
# Experimental: PBMCs from a healthy donor were preincubated for 24 hours or 48 hours in the presence of CC-92480 at 0.1 nM or CC-220 (iberdomide) at 1 nM or a DMSO control. After pretreatment, PBMCs were incubated for an additional 18 hours or overnight in the presence of H929 target cells with concentrations of Protein 1 ranging from 0 nM to 10 nM. Samples were analyzed via flow cytometry for H929 depletion. Specific lysis was calculated as following: (1−((test sample H929 count)/(H929 count in DMSO control without Protein 1)))*100. PBMCs were pretreated 0.1 nM of CC-92480 or 1 nM of CC-220 or DMSO control for either 24 hours (FIG. 13A) or 48 hours (FIG. 13B). After pretreatment, PBMCs were cultured with H929 target cells and 0 nM to 10 nM of Protein 1 overnight. H929 lysis was determined via flow cytometry. Pretreatment of PBMCs with single concentration of CC-92480 or CC-220 enhanced Protein 1 induced ADCC.
# [10] = tested on: H929 target cells; assay: Protein 1 induced ADCC after pretreatment of both PBMC and H929 target cells; type: cell-based, human
# Experimental: PBMCs from a healthy donor were pre-incubated for 48 hours in the presence of CC-92480 or CC-220 (iberdomide) or a DMSO control. Additionally, H929 cells were also pre-incubated separately from the PBMCs for 48 hours with CELMoD. For CC-92480, PBMC and H929 were incubated in 0.1 nM, 1 nM or 10 nM concentrations. For CC-220, cells were incubated in 1 nM or 10 nM concentrations. Cells were also pre-incubated in with a DMSO control. After pretreatment, PBMC and H929 were combined based on their matched treatments and incubated for an additional 18 hours or overnight in the presence of a dose range of Protein 1, 0 nM to 10 nM. Samples were analyzed via flow cytometry for H929 depletion. Specific lysis was calculated as following: (1−((test sample H929 count)/(H929 count in DMSO control without PBMC and without Protein 1)))*100. PBMC and H929 cells were pretreated separately with varying doses of CC-92480 (FIG. 14A) or CC-220 (FIG. 14B) or a DMSO control for 48 hours. After pretreatment, PBMCs and H929 target cells were combined and co-cultured overnight with a dose range of Protein 1 at 0 nM to 10 nM. H929 cell depletion was analyzed by flow cytometry. […] Pretreatment of both PBMC and H929 target cells with CC-92480 or CC-220 (iberdomide) enhanced Protein 1 induced ADCC.
# [11] = tested on: H929 target cells; assay: Protein 1 induced ADCC after pretreatment of PBMCs with different concentrations (H929 lysis, flow cytometry); type: cell-based, human; conditions: for % lysis with Protein 1: 0.1 nM Protein 1, % change from DMSO control + Protein 1; for % lysis without Protein 1: % change from DMSO control
# Experimental: PBMCs from two healthy donors were pre-incubated for 24 hours or 48 hours in the presence of CC-92480 or a DMSO control. CC-92480 was added at 0.001 nM, 0.01 nM, 0.1 nM, 1 nM and 10 nM concentrations. After pretreatment, PBMCs were incubated for an additional 18 hours or overnight in the presence of H929 target cells with or without the addition of 0.1 nM of Protein 1. Samples were analyzed via flow cytometry for H929 depletion. Specific lysis was calculated as following: (1−((test sample H929 count)/(H929 count in DMSO control without Protein 1)))*100. PBMCs from two healthy donors were pre-incubated for 24 hours or 48 hours in the presence of CC-220 or a DMSO control. CC-220 was added at 0.01 nM, 0.1 nM, 1 nM, 10 nM and 100 nM concentrations. After pretreatment, PBMCs were incubated for an additional 18 hours or overnight in the presence of H929 target cells with or without the addition of 0.1 nM of Protein 1. Samples were analyzed via flow cytometry for H929 depletion. Specific lysis was calculated as following: (1−((test sample H929 count)/(H929 count in DMSO control without Protein 1)))*100. […] Data is normalized to % change of sample from the control treated DMSO sample+/−Protein 1. For % lysis without Protein 1, the control sample is PBMC pretreated with DMSO+H929. For % lysis with Protein 1, the control sample is PBMC pretreated with DMSO+H929+0.1 nM of Protein 1.
# [12] = pretreatment 0.1 nM, 24 hour, donor 1
# [13] = pretreatment 0.1 nM, 24 hour, donor 2
# [14] = pretreatment 0.1 nM, 48 hour, donor 1
# [15] = pretreatment 0.1 nM, 48 hour, donor 2
# [16] = pretreatment 10 nM, 24 hour, donor 1
# [17] = pretreatment 10 nM, 24 hour, donor 2
# [18] = pretreatment 10 nM, 48 hour, donor 1
# [19] = pretreatment 10 nM, 48 hour, donor 2
# T2 sequence (Q9UKT9 whole entry): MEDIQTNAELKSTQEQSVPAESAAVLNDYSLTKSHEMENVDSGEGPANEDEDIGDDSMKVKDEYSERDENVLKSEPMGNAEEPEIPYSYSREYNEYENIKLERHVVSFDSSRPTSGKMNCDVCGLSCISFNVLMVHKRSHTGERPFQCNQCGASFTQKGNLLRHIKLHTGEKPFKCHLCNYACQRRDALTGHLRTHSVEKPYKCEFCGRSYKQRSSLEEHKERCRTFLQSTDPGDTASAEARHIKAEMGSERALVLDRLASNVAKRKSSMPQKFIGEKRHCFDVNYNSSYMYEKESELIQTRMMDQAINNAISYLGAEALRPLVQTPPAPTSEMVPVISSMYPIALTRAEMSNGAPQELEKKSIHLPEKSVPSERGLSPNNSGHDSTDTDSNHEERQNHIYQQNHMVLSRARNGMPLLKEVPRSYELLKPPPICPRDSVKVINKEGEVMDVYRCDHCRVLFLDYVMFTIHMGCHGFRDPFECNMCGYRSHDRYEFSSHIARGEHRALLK
# T2 sequence (Q96SW2 whole entry): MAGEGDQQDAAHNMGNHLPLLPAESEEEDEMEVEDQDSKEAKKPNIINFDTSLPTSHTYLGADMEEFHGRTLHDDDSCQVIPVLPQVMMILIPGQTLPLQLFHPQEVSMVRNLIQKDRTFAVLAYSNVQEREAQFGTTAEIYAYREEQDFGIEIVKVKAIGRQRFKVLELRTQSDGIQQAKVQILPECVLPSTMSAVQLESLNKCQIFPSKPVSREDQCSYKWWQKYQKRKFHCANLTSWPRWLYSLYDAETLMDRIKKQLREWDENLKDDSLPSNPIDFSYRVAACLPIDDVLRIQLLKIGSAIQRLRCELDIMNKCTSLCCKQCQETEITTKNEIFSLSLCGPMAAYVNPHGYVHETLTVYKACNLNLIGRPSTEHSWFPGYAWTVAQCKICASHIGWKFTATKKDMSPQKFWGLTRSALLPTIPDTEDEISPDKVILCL
# T2 sequence (Q16531 whole entry partner): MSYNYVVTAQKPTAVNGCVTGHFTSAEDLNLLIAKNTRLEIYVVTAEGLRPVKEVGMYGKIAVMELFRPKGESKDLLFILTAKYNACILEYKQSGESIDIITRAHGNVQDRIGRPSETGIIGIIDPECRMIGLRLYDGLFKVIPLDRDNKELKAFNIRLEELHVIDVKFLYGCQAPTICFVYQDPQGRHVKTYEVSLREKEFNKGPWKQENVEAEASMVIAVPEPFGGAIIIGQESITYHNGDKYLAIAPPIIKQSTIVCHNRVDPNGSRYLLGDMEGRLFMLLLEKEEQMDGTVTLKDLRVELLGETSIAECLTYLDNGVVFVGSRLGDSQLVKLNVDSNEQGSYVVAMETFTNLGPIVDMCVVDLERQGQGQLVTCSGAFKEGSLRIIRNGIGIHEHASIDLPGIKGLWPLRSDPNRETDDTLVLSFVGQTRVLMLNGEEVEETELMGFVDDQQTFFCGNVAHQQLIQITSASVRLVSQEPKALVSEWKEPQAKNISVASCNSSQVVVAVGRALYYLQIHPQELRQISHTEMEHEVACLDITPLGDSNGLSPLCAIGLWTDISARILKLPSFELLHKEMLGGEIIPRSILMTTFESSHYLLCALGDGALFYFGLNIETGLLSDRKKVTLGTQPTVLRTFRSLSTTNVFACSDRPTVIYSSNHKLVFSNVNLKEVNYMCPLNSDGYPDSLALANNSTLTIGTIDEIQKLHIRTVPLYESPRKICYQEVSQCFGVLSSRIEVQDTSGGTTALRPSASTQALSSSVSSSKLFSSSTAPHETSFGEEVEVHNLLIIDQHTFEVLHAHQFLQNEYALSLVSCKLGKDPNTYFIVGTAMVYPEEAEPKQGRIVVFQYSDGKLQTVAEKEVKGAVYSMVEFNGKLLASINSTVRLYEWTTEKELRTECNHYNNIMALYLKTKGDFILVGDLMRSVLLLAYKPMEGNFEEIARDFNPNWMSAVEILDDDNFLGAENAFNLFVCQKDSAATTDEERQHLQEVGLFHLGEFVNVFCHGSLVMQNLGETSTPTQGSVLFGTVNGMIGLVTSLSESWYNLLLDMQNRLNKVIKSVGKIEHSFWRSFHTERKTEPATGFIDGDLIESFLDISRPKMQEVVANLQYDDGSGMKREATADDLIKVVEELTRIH
# T1 sequence (Q13422 whole entry): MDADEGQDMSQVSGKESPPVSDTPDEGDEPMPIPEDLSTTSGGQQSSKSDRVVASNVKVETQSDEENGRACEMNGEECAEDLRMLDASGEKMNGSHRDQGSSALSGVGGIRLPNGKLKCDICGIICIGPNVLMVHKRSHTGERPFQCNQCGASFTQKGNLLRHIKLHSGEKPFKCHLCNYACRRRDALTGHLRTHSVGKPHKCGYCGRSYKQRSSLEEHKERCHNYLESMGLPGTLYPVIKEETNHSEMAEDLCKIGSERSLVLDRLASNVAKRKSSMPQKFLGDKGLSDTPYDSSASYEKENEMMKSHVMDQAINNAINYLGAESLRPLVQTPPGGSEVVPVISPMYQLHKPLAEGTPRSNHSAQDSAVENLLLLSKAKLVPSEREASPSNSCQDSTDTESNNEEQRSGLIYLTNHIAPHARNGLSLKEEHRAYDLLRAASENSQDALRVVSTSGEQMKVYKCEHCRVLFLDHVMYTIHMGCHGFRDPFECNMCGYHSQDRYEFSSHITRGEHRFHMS
# T1 sequence (Q96SW2 whole entry): as the sequence (Q96SW2 whole entry) above
# T1 sequence (Q16531 whole entry partner): as the sequence (Q16531 whole entry partner) above
smiles,measurement,setting,value
"Cc1nc2cccc(N)c2c(=O)n1C1CCC(=O)NC1=O (centres unmarked) [avadomide, 3-(5-amino-2-methyl-4-oxoquinazolin-3(4H)-yl)piperidine-2,6-dione]",NK cell proliferation in DLBCL patient samples,[1],dose dependently enhanced
same,degradation of Ikaros in DLBCL cells,[2],mediated degradation
same,induction of interferon stimulated genes in DLBCL cells,[3],induction
same,degradation of Aiolos in DLBCL cells,[4],mediated degradation
same,degradation of Aiolos in primary NK cells,[5],mediates degradation
same,expression of CD86,[6],enhanced expression
same,expression of HLA-DR,[6],enhanced expression
same,degradation of Ikaros in primary NK cells,[7],mediates degradation
same,NKG2D+ NK cells in DLBCL patient PBMC,[8],significantly expanded
"Nc1cccc2c1CN(C1CCC(=O)NC1=O)C2=O (centres unmarked) [lenalidomide, 3-(7-amino-3-oxo-1H-isoindol-2-yl)piperidine-2,6-dione]",NKG2D+ NK cells in DLBCL patient PBMC,[8],significantly expanded
"N#Cc1ccc(N2CCN(Cc3ccc(COc4cccc5c4CN([C@H]4CCC(=O)NC4=O)C5=O)cc3)CC2)c(F)c1 [CC-92480, (S)-4-(4-(4-(((2-(2,6-dioxopiperidin-3-yl)-1-oxoisoindolin-4-yl)oxy)methyl)benzyl)piperazin-1-yl)-3-fluorobenzonitrile]",Protein 1 induced ADCC (H929 lysis),[9],enhanced
same,susceptibility of H929 target cells to lysis,"[10]; H929 target cells pretreated 48 hours, most notably at Protein 1 0.01-0.1 nM",more susceptible to lysis
same,Protein 1 induced ADCC (H929 cell depletion),"[10]; PBMC and H929 pretreated separately 48 hours, Protein 1 0 nM to 10 nM",enhanced
same,Protein 1 induced ADCC (H929 lysis),"[11]; PBMCs pretreated 24 or 48 hours at different concentrations, 0.1 nM Protein 1 overnight",enhanced
same,% lysis difference with Protein 1,[11]; [12],48.85%
same,% lysis with Protein 1,[11]; [12],58.27%
same,% lysis without Protein 1,[11]; [12],9.42%
same,% lysis difference with Protein 1,[11]; [13],76.64%
same,% lysis with Protein 1,[11]; [13],67.82%
same,% lysis without Protein 1,[11]; [13],−8.82%
same,% lysis difference with Protein 1,[11]; [14],79.40%
same,% lysis with Protein 1,[11]; [14],64.54%
same,% lysis without Protein 1,[11]; [14],−14.86%
same,% lysis difference with Protein 1,[11]; [15],36.79%
same,% lysis with Protein 1,[11]; [15],82.02%
same,% lysis without Protein 1,[11]; [15],45.23%
same,% lysis difference with Protein 1,[11]; [16],27.75%
same,% lysis with Protein 1,[11]; [16],28.79%
same,% lysis without Protein 1,[11]; [16],1.04%
same,% lysis difference with Protein 1,[11]; [17],−33.32%
same,% lysis with Protein 1,[11]; [17],−43.51%
same,% lysis without Protein 1,[11]; [17],−10.19%
same,% lysis difference with Protein 1,[11]; [18],72.35%
same,% lysis with Protein 1,[11]; [18],42.46%
same,% lysis without Protein 1,[11]; [18],−29.89%
same,% lysis difference with Protein 1,[11]; [19],52.72%
same,% lysis with Protein 1,[11]; [19],59.57%
same,% lysis without Protein 1,[11]; [19],6.85%
